Like-named read-outs stand apart in the source and are kept apart here.

This note sets out measurements from patent US8987287B2, “Spirocyclic morphinans and their use” (Purdue Pharma L.P., priority 2012, dated 2015).

For test [1], the target named is T1, μ-opioid receptor (Homo sapiens (Human), UniProt P35372). The test is described as follows: μ-opioid receptor radioligand ([3H]-diprenorphine) dose-displacement binding assay. The note with it: binding affinity. The method, then: μ-Opioid Receptor Binding Assay Procedures: Radioligand dose-displacement binding assays for μ-opioid receptors used 0.3 nM [^3H]-diprenorphine (Perkin Elmer, Shelton, Conn.), with […] membrane protein/well in a final volume of 500 μl binding buffer (10 mM MgCl2, 1 mM EDTA, 5% DMSO, 50 mM HEPES, pH 7.4). Reactions were carried out in the absence or presence of increasing concentrations of unlabeled naloxone. All reactions were conducted in 96-deep well polypropylene plates for 2 hours at room temperature. Binding reactions were terminated by rapid filtration onto 96-well Unifilter GF/C filter plates (Perkin Elmer, Shelton, Conn.), presoaked in 0.5% polyethylenimine using a 96-well tissue harvester (Perkin Elmer, Shelton, Conn.) followed by performing three filtration washes with 500 μl of ice-cold binding buffer. Filter plates were subsequently dried at 50° C. for 2-3 hours. BetaScint scintillation cocktail (Perkin Elmer, Shelton, Conn.) was added (50 μl/well), and plates were counted using a Packard Top-Count for 1 min/well. The data were analyzed using the one-site competition curve fitting functions in GraphPad PRISM™ v. 3.0 or higher (San Diego, Calif.), or an in-house function for one-site competition curve-fitting.
(§1) In TABLE 1, binding affinity of certain Compounds of the Invention to the μ-, δ- and κ-opioid receptors was determined as described above.

Test [2] deals with T2, κ opioid receptor (Homo sapiens (Human), UniProt P41145). Kind of test: κ-opioid receptor radioligand ([3H]-U69,593) dose-displacement binding assay. The note with it: binding affinity. The method, then:
κ-Opioid Receptor Binding Assay Procedures: Membranes from recombinantHEK-293 cells, CHO or U-2 OS cells expressing the recombinant human κ opioid receptor (κ) were prepared by lysing cells in ice cold hypotonic buffer (2.5 mM MgCl2, 50 mM HEPES, pH 7.4) (10 mL/10 cm dish) followed by homogenization with a tissue grinder/Teflon pestle. Membranes were collected by centrifugation at 30,000×g for 15 min at 4° C. and pellets were resuspended in hypotonic buffer to a final concentration of 1-3 mg/mL. Protein concentrations were determined using the BioRad protein assay reagent with bovine serum albumen as standard. Aliquots of κ receptor membranes were stored at −80° C.
Radioligand dose displacement assays used 0.4 nM [^3H]-U69,593 (GE Healthcare, Piscataway, N.J.; 40 Ci/mmole) with 15 μg membrane protein (recombinant κ opioid receptor expressed in HEK 293 cells; in-house prep) in a final volume of 200 μl binding buffer (5% DMSO, 50 mM Trizma base, pH 7.4). Non-specific binding was determined in the presence of 10 μM unlabeled naloxone or U69,593. All reactions were performed in 96-well polypropylene plates for 1 hour at a temperature of about 25° C. Binding reactions were terminated by rapid filtration onto 96-well Unifilter GF/C filter plates (Perkin Elmer, Shelton, Conn.) presoaked in 0.5% polyethylenimine (Sigma). Harvesting was performed using a 96-well tissue harvester (Perkin Elmer, Shelton, Conn.) followed by five filtration washes with 200 μl ice-cold binding buffer. Filter plates were subsequently dried at 50° C. for 1-2 hours. Fifty μl/well scintillation cocktail (Perkin Elmer, Shelton, Conn.) was added and plates were counted in a Packard Top-Count for 1 min/well.
as §1

Test [3] deals with T1, μ-opioid receptor. Kind of test: μ-opioid receptor [35S]GTPγS functional assay, HEK-293 or CHO cells. The class given is biochemical. The method, then:
μ-Opioid Receptor Functional Assay Procedures: [^35S]GTPγS functional assays were conducted using freshly thawed μ-receptor membranes prepared in-house from a cell line expressing recombinant μ opioid receptor in a HEK-293, CHO or U-2 OS cell background, or purchased from a commercial source (Perkin Elmer, Shelton, Conn.; or DiscovRx, Fremont, Calif.). Assay reactions were prepared by sequentially adding the following reagents to binding buffer (100 mM NaCl, 10 mM MgCl2, 20 mM HEPES, pH 7.4) on ice (final concentrations indicated): membrane protein (0.026 mg/mL), saponin ([…]), GDP ([…]) and [^35S]GTPγS (0.20 nM; Perkin Elmer, Shelton, Conn.). The prepared membrane solution (190 μl/well) was transferred to 96-shallow well polypropylene plates containing 10 μl of 20× concentrated stock solutions of the agonist [D-Ala^2, N-methyl-Phe^4 Gly-ol^5]-enkephalin (DAMGO) prepared in dimethyl sulfoxide (DMSO). Plates were incubated for 30 min at about 25° C. with shaking. Reactions were terminated by rapid filtration onto 96-well Unifilter GF/B filter plates (Perkin Elmer, Shelton, Conn.) using a 96-well tissue harvester (Perkin Elmer, Shelton, Conn.) followed by three filtration washes with 200 μl of ice-cold wash buffer (10 mM NaH2PO4, 10 mM Na2HPO4, pH 7.4). Filter plates were subsequently dried at 50° C. for 2-3 hours. BetaScint scintillation cocktail (Perkin Elmer, Shelton, Conn.) was added (50 μl/well) and plates were counted using a Packard Top-Count for 1 min/well. Data were analyzed using the sigmoidal dose-response curve fitting functions in GraphPad PRISM v. 3.0, or an in-house function for non-linear, sigmoidal dose-response curve-fitting.
μ-Opioid Receptor Functional Data: μ GTP EC50 is the concentration of a compound providing 50% of the maximal response for the compound at a μ-opioid receptor.
μ GTP Emax (%) is the maximal effect elicited by a compound relative to the effect elicited by DAMGO, a standard μ agonist. Generally, the μ GTP Emax (%) value measures the efficacy of a compound to treat or prevent pain or other Conditions.
(§2) In TABLE 2, activity response of certain Compounds of the Invention to the μ-, δ- and κ-opioid receptors was determined as described above for functional assays using HEK-293 or CHO cells.
On the technique in general: Binding of GTPγS marks nucleotide exchange on a G protein.

Test [4] concerns the target T2, κ opioid receptor. Kind of test: κ-opioid receptor [35S]GTPγS functional assay, HEK-293 or CHO cells. The class given is biochemical. The method, then:
κ-Opioid Receptor Functional Assay Procedures: Functional [^35S]GTPγS binding assays were conducted as follows. κ opioid receptor membrane solution was prepared by sequentially adding final concentrations of 0.026 μg/μl κ membrane protein (in-house), 10 μg/mL saponin, 3 μM GDP and 0.20 nM [^35S]GTPγS to binding buffer (100 mM NaCl, 10 mM MgCl2, 20 mM HEPES, pH 7.4) on ice. The prepared membrane solution (190 μl/well) was transferred to 96-shallow well polypropylene plates containing 10 μl of 20× concentrated stock solutions of agonist prepared in DMSO. Plates were incubated for 30 min at a temperature of about 25° C. with shaking. Reactions were terminated by rapid filtration onto 96-well Unifilter GF/B filter plates (Perkin Elmer, Shelton, Conn.) using a 96-well tissue harvester (Packard) and followed by three filtration washes with 200 μl ice-cold binding buffer (10 mM NaH2PO4, 10 mM Na2HPO4, pH 7.4). Filter plates were subsequently dried at 50° C. for 2-3 hours. Fifty μl/well scintillation cocktail (Perkin Elmer, Shelton, Conn.) was added and plates were counted in a Packard Top-Count for 1 min/well.
κ-Opioid Receptor Functional Data: κ GTP EC50 is the concentration of a compound providing 50% of the maximal response for the compound at a κ receptor.
κ GTP Emax (%) is the maximal effect elicited by a compound relative to the effect elicited by U69,593.
as §2

Test [5] concerns the target T1, μ-opioid receptor. The test is described as follows: μ-opioid receptor [35S]GTPγS functional assay, U-2 OS cells. The class given is biochemical.
The target of test [6] is T2, κ opioid receptor. Kind of test: κ-opioid receptor [35S]GTPγS functional assay, U-2 OS cells. The class given is biochemical.
Where [7] appears, read: read-out: Opioid Receptor Ki (nM) μ.
Setting [8] is: read-out: Opioid Receptor Ki (nM) κ.
The mark [9] stands for this setting: relative to DAMGO, HEK-293 or CHO cells.
Where [10] appears, read: relative to U69,593, HEK-293 or CHO cells.
Setting [11] is: bound given in μM, read-out: Opioid Receptor Ki κ.

As usually defined, the Ki is the dissociation constant of the complex between target and ligand, obtained from inhibition or displacement. As a reminder, the EC50 is the midpoint of the concentration-response curve. The term Emax denotes the maximal effect, on the per cent scale that the assay sets. Turning to `COc1ccc2c(c1)[C@]13CCN(CC4CC4)[C@H](C2)[C@]1(O)CC[C@@]1(C3)NC(=O)NC1=O` [Compound 2, (4bR,4′S,8aS,9R)-11-(cyclopropylmethyl)-8a-hydroxy-3-methoxy-5,7,8,8a,9,10-hexahydrospiro[9,4b-(epiminoethano)phenanthrene-6,4′-imidazolidine]-2′,5′-dione], the Ki in test [1] (setting [7]) came to 9050 ± 895 nM; in test [2] (setting [8]) it was 130 ± 22.7 nM. Besides, the values for the EC50 in test [3] and in test [4] were 1950 ± 37.7 nM and 2500 ± 556 nM, respectively. For the same compound, the Emax is 31.3 ± 2.4% in test [3] (setting [9]) and 63 ± 1.53% in test [4] (setting [10]).
Take `COc1ccc2c(c1)[C@]13CCN(CC4CC4)[C@H](C2)[C@]1(O)CC[C@@]1(CNC(=O)N1)C3` [Compound 4, (4bR,4′S,8aS,9R)-11-(cyclopropylmethyl)-8a-hydroxy-3-methoxy-5,7,8,8a,9,10-hexahydrospiro[9,4b-(epiminoethano)phenanthrene-6,4′-imidazolidin]-2′-one]: in test [2] (setting [8]), the inhibition constant (Ki) came to 135 ± 38.1 nM. For the same compound, the values for the EC50 in test [3] and in test [4] were 809 ± 143 nM and 901 ± 389 nM, respectively. Also, the results for the Emax in test [3] (setting [9]) and in test [4] (setting [10]) were 20.7 ± 0.67% and 44.3 ± 1.45%, respectively.
For `COc1ccc2c(c1)[C@]13CCN(CC4CC4)[C@H](C2)[C@@H]1CC[C@@]1(C3)NC(=O)NC1=O` [Compound 6, (4bS,4′S,8aR,9R)-11-(cyclopropylmethyl)-3-methoxy-5,7,8,8a,9,10-hexahydrospiro[9,4b-(epiminoethano)phenanthrene-6,4′-imidazolidine]-2′,5′-dione], the Ki in test [2] (setting [8]) turned out to be 12.2 ± 2.61 nM. Further, the EC50 in test [3] came out at 1460 ± 121 nM; in test [4], 1230 ± 380 nM. The values for the Emax in test [3] (setting [9]) and in test [4] (setting [10]) were 58.3 ± 5.24% and 89.7 ± 3.53%, respectively.
`O=C1NC(=O)[C@@]2(CC[C@H]3[C@H]4Cc5ccc(O)cc5[C@@]3(CCN4CC3CC3)C2)N1` [Compound 7, (4bS,4′S,8aR,9R)-11-(cyclopropylmethyl)-3-hydroxy-5,7,8,8a,9,10-hexahydrospiro[9,4b-(epiminoethano)phenanthrene-6,4′-imidazolidine]-2′,5′-dione]: the Ki in test [1] (setting [7]) turned out to be 8.39 ± 2.72 nM; in test [2] (setting [8]), 0.23 ± 0.05 nM. The EC50 in test [3] turned out to be 3.76 ± 0.41 nM; in test [4] it was 3.68 ± 0.99 nM. Also, the results for the Emax in test [3] (setting [9]) and in test [4] (setting [10]) were 37 ± 4.04% and 86.3 ± 2.19%, respectively.
Turning to `CN1CC[C@]23C[C@]4(CC[C@@]2(O)[C@H]1Cc1ccc(O)cc13)NC(=O)NC4=O` [Compound 10, (4bR,4′S,8aS,9R)-3,8a-dihydroxy-11-methyl-5,7,8,8a,9,10-hexahydrospiro[9,4b-(epiminoethano)phenanthrene-6,4′-imidazolidine]-2′,5′-dione], the Ki in test [1] (setting [7]) came out at 27 ± 3.07 nM; in test [2] (setting [8]), 155 ± 29.5 nM.
`COc1ccc2c(c1)[C@]13CCN(Cc4ccccc4)[C@H](C2)[C@]1(O)CC[C@@]1(C3)NC(=O)NC1=O` [Compound 11, (4bR,4′S,8aS,9R)-11-benzyl-8a-hydroxy-3-methoxy-5,7,8,8a,9,10-hexahydrospiro[9,4b-(epiminoethano)phenanthrene-6,4′-imidazolidine]-2′,5′-dione]: the Ki was > 20000 nM in test [1] (bound given in μM, read-out: Opioid Receptor Ki μ) and > 20000 nM in test [2] (setting [11]).
Regarding `COc1ccc2c(c1)[C@]13CCN[C@H](C2)[C@]1(O)CC[C@@]1(C3)NC(=O)NC1=O` [Compound 12, (4bR,4′S,8aS,9R)-8a-hydroxy-3-methoxy-5,7,8,8a,9,10-hexahydrospiro[9,4b-(epiminoethano)phenanthrene-6,4′-imidazolidine]-2′,5′-dione], the Ki in test [1] (setting [7]) is 14900 nM; in test [2] (setting [11]), > 20000 nM.
For the compound `CCN1C(=O)NC(=O)[C@@]12CC[C@@]1(O)[C@H]3Cc4ccc(O)cc4[C@@]1(CCN3CC1CC1)C2` [Compound 49, (4S,4b′R,8a′S,9′R)-11′-(cyclopropylmethyl)-3-ethyl-3′,8a′-dihydroxy-8′,8a′,9′,10′-tetrahydro-5′H,7′H-spiro[imidazolidine-4,6′-[9,4b](epiminoethano)phenantrene]-2,5-dione], the Ki in test [1] (setting [7]) worked out at 2.28 ± 0.62 nM; in test [2] (setting [8]) it was 0.47 ± 0.026 nM. Further, the EC50 was > 20000 nM in test [3], 6.63 ± 2.21 nM in test [4], > 20000 nM in test [5] and 1.82 ± 0.098 nM in test [6]. Also, the Emax in test [3] (setting [9]) came out at 1%; in test [4] (setting [10]) it was 59.3 ± 4.06%; in test [5] (relative to DAMGO, U-2 OS cells), 2.5%; in test [6] (relative to U69,593, U-2 OS cells) it was 111 ± 3.51%.
As for “(4bS,4′S,8aR,9R)-11-(cyclopropylmethyl)-3-hydroxy-5,7,8,8a,9,10-hexahydrospiro[9,4b-(epiminoethano)phenanthrene-6,4′-imidazolidin]-2′-one [Compound 8]”, the Ki in test [2] (setting [8]) came to 0.2 ± 0.05 nM. The EC50 in test [3] (GTPγS, HEK-293 or CHO cells, read-out: Opioid Receptor μ EC50) was 7.39 ± 1.89 nM; in test [4] (GTPγS, HEK-293 or CHO cells, read-out: Opioid Receptor κ EC50), 27.2 ± 8.1 nM. The “Opioid Receptor μ Emax (%)” value in test [3] (setting [9]) was 39.67 ± 3.28%. Besides, in test [4] (setting [10]), the “Opioid Receptor κ Emax (%)” value is listed as 91.33 ± 5.04%.
